Active and inactive are the calls of the source. The calls are words filed in the database; no cut-off is given here.
Assays:
[1] = target: T1, Casein kinase I isoform delta (Homo sapiens, UniProt P48730); assay: Inhibition of CK1delta (unknown origin) using Light-TopoIla(Thr1342) peptide as substrate incubated for 10 mins in presence of ATP by TR-FRET assay
Target sequence in this assay (P48730 whole entry, canonical isoform): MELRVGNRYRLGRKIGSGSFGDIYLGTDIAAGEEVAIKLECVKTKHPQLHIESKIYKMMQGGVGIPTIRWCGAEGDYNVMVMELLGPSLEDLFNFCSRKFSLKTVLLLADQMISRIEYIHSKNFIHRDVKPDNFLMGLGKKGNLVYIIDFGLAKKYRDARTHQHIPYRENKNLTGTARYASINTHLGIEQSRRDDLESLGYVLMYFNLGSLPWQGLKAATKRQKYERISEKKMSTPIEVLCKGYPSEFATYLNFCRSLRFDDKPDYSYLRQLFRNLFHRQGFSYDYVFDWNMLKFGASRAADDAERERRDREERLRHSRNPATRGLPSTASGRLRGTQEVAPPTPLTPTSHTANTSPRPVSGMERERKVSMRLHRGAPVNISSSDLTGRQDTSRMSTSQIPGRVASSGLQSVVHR

T-24 = assay: Antiproliferative activity against human T24 cells assessed as reduction in cell proliferation incubated for 72 hrs by Cell Titer Glo assay; assay type: functional, cell-based; settings: T-24, 72 h
5637 = assay: Antiproliferative activity against human 5637 cells assessed as reduction in cell proliferation incubated for 72 hrs by Cell Titer Glo assay; assay type: functional, cell-based; settings: Homo sapiens, 5637, 72 h
UMUC3 = assay: Antiproliferative activity against human UMUC3 cells assessed as reduction in cell proliferation incubated for 72 hrs by Cell Titer Glo assay; assay type: functional, cell-based; settings: UMUC3, 72 h
U2OS = assay: Antiproliferative activity against human U2OS cells assessed as reduction in cell proliferation incubated for 72 hrs by Cell Titer Glo assay; assay type: functional, cell-based
[2] = target: T1, Casein kinase I isoform delta; assay: Inhibition of N-terminal His-tagged CK1delta (unknown origin) expressed in Escherichia coli using Light-TopoIla(Thr1342) peptide as substrate at 10 uM incubated for 10 mins in presence of ATP by TR-FRET assay
Target sequence in this assay (P48730 whole entry, looked up, canonical isoform): as the sequence (P48730 whole entry, canonical isoform) above

[3] = target: T1, Casein kinase I isoform delta; assay: Inhibition of CK1delta (unknown origin)
Target sequence in this assay (P48730 whole entry, canonical isoform): as above

[4] = target: Casein kinase I isoform epsilon (Homo sapiens, UniProt P49674); assay: Inhibition of CK1epsilon (unknown origin)
Sequence of Casein kinase I isoform epsilon (P49674 whole entry, canonical isoform): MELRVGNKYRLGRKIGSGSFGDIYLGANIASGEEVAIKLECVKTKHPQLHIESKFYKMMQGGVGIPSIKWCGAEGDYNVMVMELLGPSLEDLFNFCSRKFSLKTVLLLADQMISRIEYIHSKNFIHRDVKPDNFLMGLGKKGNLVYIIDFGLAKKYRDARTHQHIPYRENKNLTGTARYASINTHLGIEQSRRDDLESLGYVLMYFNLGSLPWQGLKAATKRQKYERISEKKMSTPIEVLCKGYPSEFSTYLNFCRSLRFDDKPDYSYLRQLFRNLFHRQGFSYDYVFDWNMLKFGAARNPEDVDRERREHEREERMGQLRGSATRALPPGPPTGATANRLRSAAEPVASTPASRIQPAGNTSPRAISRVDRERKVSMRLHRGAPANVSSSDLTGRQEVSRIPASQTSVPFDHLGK

## N#Cc1ccc(CCn2cnc3c(NCc4nc5c(F)c(F)ccc5[nH]4)nc(N4CCOCC4)nc32)cc1
[1]
  IC50: > 10000 nM

## Fc1ccc2[nH]c(CNc3nc(N4CCOCC4)nc4c3ncn4-c3ccc4ccccc4c3)nc2c1F
[1]
  IC50: > 10000 nM
T-24
  EC50: 265 nM
5637
  EC50: 314 nM
UMUC3
  EC50: 540 nM
U2OS
  EC50: 373 nM

## Fc1cccc(CCn2cnc3c(NCc4nc5c(F)c(F)ccc5[nH]4)nc(N4CCOCC4)nc32)c1
[1]
  IC50: > 10000 nM

## Fc1ccc2[nH]c(CNc3nc(N4CCOCC4)nc4c3ncn4CCc3cccc(Cl)c3)nc2c1F
[1]
  IC50: > 10000 nM
[2]
  inhibition: inactive

## Fc1cccc(-n2cnc3c(NCc4nc5c(F)c(F)ccc5[nH]4)nc(N4CCOCC4)nc32)c1
T-24
  EC50: 8 nM
5637
  EC50: 6 nM
UMUC3
  EC50: 26 nM
U2OS
  EC50: 9 nM

## CCOc1ccc(-n2cnc3c(NCc4nc5c(F)c(F)ccc5[nH]4)nc(N4CCOCC4)nc32)cc1
[1]
  IC50: > 10000 nM

## Fc1ccc2[nH]c(CNc3nc(N4CCOCC4)nc4c3ncn4-c3ccc4c(c3)OCCO4)nc2c1F
[1]
  IC50: > 10000 nM

## Fc1cccc(Cn2cnc3c(NCc4nc5c(F)c(F)ccc5[nH]4)nc(N4CCOCC4)nc32)c1
[1]
  IC50: > 10000 nM

## CC(C)Oc1ccc(-n2cnc3c(NCc4nc5c(F)c(F)ccc5[nH]4)nc(N4CCOCC4)nc32)cc1
[1]
  IC50: > 10000 nM
[2]
  inhibition: inactive

## COc1ccc(-n2cnc3c(NCc4nc5c(F)c(F)ccc5[nH]4)nc(N4CCOCC4)nc32)cc1
T-24
  EC50: 95 nM
5637
  EC50: 106 nM
UMUC3
  EC50: 5780 nM
U2OS
  EC50: 164 nM

## Fc1cc(F)cc(CCn2cnc3c(NCc4nc5c(F)c(F)ccc5[nH]4)nc(N4CCOCC4)nc32)c1
[1]
  IC50: > 10000 nM

## Fc1ccc2[nH]c(CNc3nc(N4CCOCC4)nc4c3ncn4Cc3cccc4ccccc34)nc2c1F
[1]
  IC50: > 10000 nM

## Fc1ccc2[nH]c(CNc3nc(N4CCOCC4)nc4c3ncn4CCc3ccc(C(F)(F)F)cc3)nc2c1F
[1]
  IC50: > 10000 nM
[2]
  inhibition: inactive

## Fc1ccc2[nH]c(CNc3nc(N4CCOCC4)nc4c3ncn4CCc3cccc(Br)c3)nc2c1F
[1]
  IC50: > 10000 nM

## Fc1ccc2[nH]c(CNc3nc(N4CCOCC4)nc4c3ncn4Cc3ccc4ccccc4c3)nc2c1F
[1]
  IC50: > 10000 nM

## Fc1ccc2[nH]c(CNc3nc(N4CCOCC4)nc4c3ncn4-c3ccc4ncsc4c3)nc2c1F
[1]
  IC50: > 10000 nM

## Fc1ccc2[nH]c(CNc3nc(N4CCOCC4)nc4c3ncn4CCc3cccc(C(F)(F)F)c3)nc2c1F
[1]
  IC50: > 10000 nM

## O=C(Nc1nc2cc(Cl)c(F)cc2[nH]1)c1coc(NC(=O)c2ccccc2OC(F)(F)F)n1
[3]
  IC50: 42 nM
[4]
  IC50: 33 nM

Reference: ChEMBL document CHEMBL5338789, “Structure-Based Development of Isoform-Selective Inhibitors of Casein Kinase 1ε vs Casein Kinase 1δ” (J Med Chem, 2023)
